Measurements published in patent US7087629B2, “Heterocyclylaminomethyloxazolidinones as antibacterials” (AstraZeneca AB, priority 1998, dated 2006).
≈ marks a conversion by molar mass, not a printed value.

What was measured:
Type in all cases: cell-based
[1] = tested on: Staphylococcus aureus Oxford; test: MIC by agar-dilution, Staphylococcus aureus Oxford; conditions: inoculum 10^4 CFU/spot, 37° C., 24 hours
Procedure: (§1) The following results were obtained on a standard in-vitro test system. The activity is described in terms of the minimum inhibitory concentration (MIC) detemined by the agar-dilution technique with an inoculum size of 10^4 CFU/spot. Typically, compounds are active in the range 0.01 to 256 μg/ml.
(§2) Staphylococci were tested on agar, using an inoculum of 10^4 CFU/spot and an incubation temperature of 37° C. for 24 hours—standard test conditions for the expression of methicillin resistance.

[2] = tested on: Staphylococcus aureus Novb. Res (Novobiocin resistant); test: MIC by agar-dilution, Staphylococcus aureus Novb. Res; conditions: inoculum 10^4 CFU/spot, 37° C., 24 hours
Procedure: as §1, §2

[3] = tested on: Staphylococcus aureus MRQR (methicillin resistant quinolone resistant); test: MIC by agar-dilution, Staphylococcus aureus MRQR; conditions: inoculum 10^4 CFU/spot, 37° C., 24 hours
Procedure: as §1, §2

[4] = tested on: Coagulase Negative Staphylococci MS (methicillin sensitive); test: MIC by agar-dilution, Coagulase Negative Staphylococci MS; conditions: inoculum 10^4 CFU/spot, 37° C., 24 hours
Procedure: as §1, §2

[5] = tested on: Coagulase Negative Staphylococci MR (methicillin resistant); test: MIC by agar-dilution, Coagulase Negative Staphylococci MR; conditions: inoculum 10^4 CFU/spot, 37° C., 24 hours
Procedure: as §1, §2

[6] = tested on: Streptococcus pyogenes C203; test: MIC by agar-dilution, Streptococcus pyogenes C203; conditions: agar with 5% defibrinated horse blood, 10^4 CFU/spot, 37° C., 5% carbon dioxide, 48 hours
Procedure: as §1, with “μg/ml. Streptococci and enterococci were tested on agar supplemented with 5% defibrinated horse blood, an inoculum of 10^4 CFU/spot and an incubation temperature of 37° C. in an atmosphere of 5% carbon dioxide for 48 hours—blood is required for the growth of some of the test organisms.” for “μg/ml.”

Enterococcus faecalis = test: MIC by agar-dilution, Enterococcus faecalis; conditions: agar with 5% defibrinated horse blood, 10^4 CFU/spot, 37° C., 5% carbon dioxide, 48 hours
Procedure: as §1, with “μg/ml. Streptococci and enterococci were tested on agar supplemented with 5% defibrinated horse blood, an inoculum of 10^4 CFU/spot and an incubation temperature of 37° C. in an atmosphere of 5% carbon dioxide for 48 hours—blood is required for the growth of some of the test organisms.” for “μg/ml.”

Bacillus subtilis = test: MIC by agar-dilution, Bacillus subtilis; conditions: inoculum 10^4 CFU/spot
Procedure: as §1

MIC [1]: 0.5 µg/mL (≈ 1.38 µM)
MIC [2]: 1 µg/mL (≈ 2.76 µM)
MIC [3]: 1 µg/mL (≈ 2.76 µM)
MIC [4]: 0.5 µg/mL (≈ 1.38 µM)
MIC [5]: 1 µg/mL (≈ 2.76 µM)
MIC [6]: 1 µg/mL (≈ 2.76 µM)
MIC (Enterococcus faecalis): 2 µg/mL (≈ 5.52 µM)
MIC (Bacillus subtilis): 0.5 µg/mL (≈ 1.38 µM)
SMILES: O=C1O[C@@H](CNc2ccon2)CN1c1ccc(N2CCOCC2)c(F)c1 [Example 2, 5(S)-Isoxazol-3-ylaminomethyl-3-(3-fluoro-4-morpholinophenyl)-oxazolidin-2-one]
